# Legend:
# Format in all cases: cell-based, human
# MM1s and NCI-H929 cells = test: Cell cycle analysis by flow cytometry; conditions: 48 hr of transfection after nocodazole synchronization; scrambled-transfected ~30%
# Description: FIG. 3G, FIG. 3H, FIG. 31, FIG. 3J: Flow cytometry analysis in MM1s (FIG. 3G), NCI-H929 (FIG. 3H) and KMS28BM (FIG. 31) cells (miR-192, miR-194, miR-215 and Scr transfected) at 48 hr of transfection, after first being arrested and synchronized in G2/M phase by Nocodazole for 16 hr. Apoptosis in KMS28BM was evaluated by caspase-3 activity (FIG. 3J). All experiments were performed in triplicate ±SD.
# Nocodazole was (Sigma-Aldrich) was dissolved in DMSO as a stock solution of 10 mg/ml for cell cycle arrest in G2/M phase. Cells were first arrested and synchronized in G2/M phase by growth in 80 nM nocodazole for 16 hr. Cells were then washed and fresh medium added. After 6 hr, cell cycle analysis was performed by propidium iodide staining. Corresponding amounts of DMSO alone were added in control experiments. […] For DNA content analysis, cells were fixed in methanol at −20° C., washed again, rehydrated, re-suspended in PBS containing 50 μg/ml propidium iodide (PI) and 50 μg/ml RNase A, and analyzed by flow cytometry (Becton Dickinson). […] After the treatment the cells were analyzed using Caspase-Glo 3 Assay kit (Promega) according to the manufacturer's instructions. Continuous variables were expressed as mean values ± standard deviation (s.d.).
# HDM2 3′UTR = test: Luciferase reporter assay, pGL3-MDM2-3'UTR; conditions: MM1s cells, construct containing all MREs
# Description: FIG. 4G: miRNAs predicted to interact with HDM2 gene in several consensus binding sites (x) at its 3′-UTR, according to “in silico” RNA-22 prediction software. Luciferase assay showing decreased luciferase activity in cells co-transfected with pGL3-MDM2-3′UTR and miR-192, miR-194, miR-215 and Scr sequence. See also FIG. 18. All experiments were performed in triplicate ±SD.
# To verify that HDM2 is a direct target of miR-192, miR-194 and miR-215, HDM2 3′UTR containing all MREs (˜4K), was cloned into pGL3 basic construct downstream of the luciferase open reading frame (FIG. 4D). This reporter construct was used to transfect the highly transfectable MM1s cells that express the endogenous miRs following up-modulated p53 expression.
# MM1s cells were cotransfected with 1 μg of pGL3 firefly luciferase reporter vector, 0.1 μg of the phRL-SV40 control vector (Promega), and 100 nM miRNA precursors (Ambion) using nucleoporation (LONZA) Cell Line Nucleofector Kit V. Firefly and Renilla luciferase activities were measured consecutively by using the Dual Luciferase Assay (Promega) 24 hr after transfection. Each reporter plasmid was transfected at least twice (on different days) and each sample was assayed in triplicate. […]
# MM1s cells = test: Caspase-3 activation assay with MI-219 in miRNA-transfected cells; conditions: MI-219 in presence of the miRNA; p<0.001
# Description: FIG. 5C: Apoptotic effect at different concentrations and time points for each miRNA transfected cells was assessed by caspase-3 activation assay.
# Nocodazole was (Sigma-Aldrich) was dissolved in DMSO as a stock solution of 10 mg/ml for cell cycle arrest in G2/M phase. Cells were first arrested and synchronized in G2/M phase by growth in 80 nM nocodazole for 16 hr. Cells were then washed and fresh medium added. After 6 hr, cell cycle analysis was performed by propidium iodide staining. Corresponding amounts of DMSO alone were added in control experiments. In experiments involving transfection and MI-219 treatment, the cells were first transfected, incubated for 24 hr, and then treated with the chemotherapeutic drug for 24 hr. For DNA content analysis, cells were fixed in methanol at −20° C., washed again, rehydrated, re-suspended in PBS containing 50 μg/ml propidium iodide (PI) and 50 μg/ml RNase A, and analyzed by flow cytometry (Becton Dickinson). For detection of caspase 3 activity, KMS28BM and MM1s cells were cultured in 96-well plates and treated with Nutlin-3a. After the treatment the cells were analyzed using Caspase-Glo 3 Assay kit (Promega) according to the manufacturer's instructions. Continuous variables were expressed as mean values ± standard deviation (s.d.).
# [1] = test system: NCI-H929 and RPMI-8226 IGF-1 treated cells; test: Intra-epithelial trans-well migration assay with IGF-1 as attractant; conditions: ectopic expression, vs Scr control
# From the text: FIG. 7B: Intra-epithelial migration assay in MM cells miRNAs transfected using HS-5 cells at different concentrations of IGF-1 as attractant. Bars indicate relative fold change of migration compared with the control ±SD.
# FIG. 21C: Intra-epithelial migration assay in MM1s and RPMI-8226 cells (pre-miRNA-192, -194, -215, Scr-transfected) using HS-27A stromal cell as cellular layer at different concentrations of IGF-1 as attractant. Bars indicate relative fold change of migration compared with the control. All experiments were performed in triplicate.
# To this end, the inventors used intra-epithelial trans-well migration assay with IGF-1 at various concentrations as attractant and two bone marrow-derived stromal cells, HS-5 (fibroblast-like) and HS-27A (epithelial-like) as cell layer.
# IGF-I-induced MM transendothelial migration was determined using 24 well, 6.5 mm internal diameter transwell cluster plates with polycarbonate membranes ([…] pore size) separating the 2 chambers (Corning Costar, Cambridge, Mass.). Bone marrow stromal cell lines HS-5 and HS-27A were grown on the insert for 24 hrs to produce a confluent monolayer. […] At the end of the incubation period, cells migrating through endothelial or bone marrow stromal cell layers into the lower chamber were harvested, stained with trypan blue, and counted under a microscope.
Substance,cells in G0/G1 arrest (MM1s and NCI-H929 cells) [%],luciferase expression of HDM2 3′UTR reporter (HDM2 3′UTR),caspase-3 activation induced by MI-219 (MM1s cells),migration and tissue invasion [1]
"miR-192: microRNA, p53-activated, down-regulated in MM; transfected as miRNA precursor (Ambion) or lentivector; SEQ ID NO:56 (CUGACCUAUGAAUUGACAGCC; listed as RNA, chemistry not given here; listed as Homo sapiens)",~60,significantly diminished,higher caspase-3 activation,significant decrease
"miR-215: microRNA, p53-activated, down-regulated in MM; transfected as miRNA precursor (Ambion) or lentivector; SEQ ID NO:58 (AUGACCUAUGAAUUGACAGAC; listed as RNA, chemistry not given here; listed as Homo sapiens)",~60,significantly diminished,higher caspase-3 activation,significant decrease

# Reference: patent publication US20130150430A1, “Methods for Impairing the P53/HDM2 Auto-Regulatory Loop in Multiple Myeloma Development Using mIR-192, mIR-194 and mIR-215” (THE OHIO STATE UNIVERSITY, priority 2011, published 2013)
